# Measurements published in patent US8703768B2, “Nitrogen containing heteroaryl compounds” (Hoffmann-La Roche Inc., priority 2010, dated 2014).
# Molecular target: human PDE10A (Homo sapiens (Human), UniProt Q9Y233)
# Experiment: human PDE10A full length Scintillation Proximity Assay (SPA)
# Format: biochemical
# Conditions: 50 nM cGMP and 50 nM [3H]-cGMP, 20 minutes at room temperature; read-out: PDE10A inhibition IC50
# Method in brief: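 Radiometric SPA read-out: after 20 min at room temperature with [^3H]-cGMP/cGMP substrate, zinc sulphate (18 mM) bead stop reagent added and counts read after 1 h. Non-specific signal defined without enzyme; full-length protein used.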
# Chain of human PDE10A (Q9Y233 other isoform, or with tags, fused parts or gaps): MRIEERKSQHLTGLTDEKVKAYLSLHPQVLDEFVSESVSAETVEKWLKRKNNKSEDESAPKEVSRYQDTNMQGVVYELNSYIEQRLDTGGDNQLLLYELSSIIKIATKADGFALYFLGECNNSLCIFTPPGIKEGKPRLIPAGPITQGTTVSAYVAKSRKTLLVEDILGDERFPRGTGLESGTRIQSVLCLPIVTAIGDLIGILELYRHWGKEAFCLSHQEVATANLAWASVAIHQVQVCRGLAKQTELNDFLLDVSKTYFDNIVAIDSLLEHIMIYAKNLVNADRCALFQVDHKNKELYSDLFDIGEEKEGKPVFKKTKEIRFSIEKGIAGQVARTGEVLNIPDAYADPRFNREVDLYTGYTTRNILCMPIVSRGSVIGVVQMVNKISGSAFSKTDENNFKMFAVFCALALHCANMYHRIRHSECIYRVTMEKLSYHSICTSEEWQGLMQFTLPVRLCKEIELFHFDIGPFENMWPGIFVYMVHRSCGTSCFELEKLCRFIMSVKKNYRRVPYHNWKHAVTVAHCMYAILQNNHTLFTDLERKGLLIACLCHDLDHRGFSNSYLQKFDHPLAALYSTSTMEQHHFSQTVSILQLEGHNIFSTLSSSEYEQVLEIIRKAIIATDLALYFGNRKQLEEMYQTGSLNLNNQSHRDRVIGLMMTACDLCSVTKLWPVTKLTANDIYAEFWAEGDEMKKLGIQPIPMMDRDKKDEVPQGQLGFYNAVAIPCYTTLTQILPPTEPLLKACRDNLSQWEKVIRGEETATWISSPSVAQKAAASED
row,SMILES,IC50
1,"CNC(=O)c1cc(F)ccc1NC(=O)c1nc(C2CC2)cnc1Nc1cncnc1 [Example 312, 6-Cyclopropyl-3-(pyrimidin-5-ylamino)-pyrazine-2-carboxylic acid (4-fluoro-2-methylcarbamoyl-phenyl)-amide]",0.8 nM
2,O=C(Nc1cnccc1C(=O)N1CCC(O)C1)c1nc(C2CC2)ccc1Nc1cncnc1 (stereo not drawn) [Example 87],180 nM
3,"Cn1ncc(NC(=O)c2nc(C3CC3)cnc2Nc2cncnc2)c1C(=O)N1CCCCC1 [Example 168, 6-Cyclopropyl-3-(pyrimidin-5-ylamino)-pyrazine-2-carboxylic acid [1-methyl-5-(piperidine-1-carbonyl)-1H-pyrazol-4-yl]-amide]",32.9 nM
4,"CNC(=O)c1ccccc1NC(=O)c1nc(C2CC2)ccc1Nc1cncnc1 [Example 29, 6-Cyclopropyl-3-(pyrimidin-5-ylamino)-pyridine-2-carboxylic acid (2-methylcarbamoyl-phenyl)-amide]",1.3 nM
5,"O=C(NC1CCCC1)c1ccncc1NC(=O)c1nc(C2CC2)ccc1Nc1cncnc1 [Example 61, 6-Cyclopropyl-3-(pyrimidin-5-ylamino)-pyridine-2-carboxylic acid (4-cyclopentylcarbamoyl-pyridin-3-yl)-amide]",1.3 nM
6,"Cc1ncc(NC(=O)c2nc(C3CC3)cnc2Nc2cncnc2)c(C(=O)NCC(C)(C)O)n1 [Example 281, 5-{[6-Cyclopropyl-3-(pyrimidin-5-ylamino)-pyrazine-2-carbonyl]-amino}-2-methyl-pyrimidine-4-carboxylic acid (2-hydroxy-2-methyl-propyl)-amide]",0.6 nM
7,"CCN(C)C(=O)c1c(NC(=O)c2nc(C3CC3)cnc2Nc2cncnc2)cnn1C [Example 203, 6-Cyclopropyl-3-(pyrimidin-5-ylamino)-pyrazine-2-carboxylic acid [5-(ethyl-methyl-carbamoyl)-1-methyl-1H-pyrazol-4-yl]-amide]",33.8 nM
8,"Cn1cc(NC(=O)c2nc(C3CC3)ccc2Nc2cncnc2)c(C(=O)N2CC(O)C2)n1 [Example 50, 6-Cyclopropyl-3-(pyrimidin-5-ylamino)-pyridine-2-carboxylic acid [3-(3-hydroxy-azetidine-1-carbonyl)-1-methyl-1H-pyrazol-4-yl]-amide]",31.7 nM
9,"CNC(=O)c1c(NC(=O)c2nc(C3CC3)ccc2Nc2cncnc2)cnn1CC1CC1 [Example 13, 6-Cyclopropyl-3-(pyrimidin-5-ylamino)-pyridine-2-carboxylic acid (1-cyclopropylmethyl-5-methylcarbamoyl-1H-pyrazol-4-yl)-amide]",256 nM
10,"Cc1ccc(NC(=O)c2nc(C3CC3)cnc2Nc2cncnc2)c(C(=O)N(C)C)n1 [Example 268, 6-Cyclopropyl-3-(pyrimidin-5-ylamino)-pyrazine-2-carboxylic acid (2-dimethylcarbamoyl-6-methyl-pyridin-3-yl)-amide]",14.9 nM
11,"O=C(NC1CCOC1)c1ccncc1NC(=O)c1nc(C2CC2)cnc1Nc1cncnc1 (stereo not drawn) [Example 100, 6-Cyclopropyl-3-(pyrimidin-5-ylamino)-pyrazine-2-carboxylic acid [4-(tetrahydro-furan-3-ylcarbamoyl)-pyridin-3-yl]-amide]",2.5 nM
12,"CC(C)CNC(=O)c1c(NC(=O)c2nc(C3CC3)cnc2Nc2cncnc2)cnn1C [Example 167, 6-Cyclopropyl-3-(pyrimidin-5-ylamino)-pyrazine-2-carboxylic acid (5-isobutylcarbamoyl-1-methyl-1H-pyrazol-4-yl)-amide]",4.4 nM
13,"CN(CC(F)(F)F)C(=O)c1c(NC(=O)c2nc(C3CC3)cnc2Nc2cncnc2)cnn1C [Example 237, 6-Cyclopropyl-3-(pyrimidin-5-ylamino)-pyrazine-2-carboxylic acid {1-methyl-5-[methyl-(2,2,2-trifluoro-ethyl)-carbamoyl]-1H-pyrazol-4-yl}-amide]",93.4 nM
14,"O=C(Nc1ccc(C2CC2)nc1C(=O)N1CCC1)c1nc(C2CC2)cnc1Nc1cncnc1 [Example 272, 6-Cyclopropyl-3-(pyrimidin-5-ylamino)-pyrazine-2-carboxylic acid [2-(azetidine-1-carbonyl)-6-cyclopropyl-pyridin-3-yl]-amide]",8.5 nM
15,"CN(CCO)C(=O)c1ncccc1NC(=O)c1nc(C2CC2)cnc1Nc1cncnc1 [Example 269, 6-Cyclopropyl-3-(pyrimidin-5-ylamino)-pyrazine-2-carboxylic acid {2-[(2-hydroxy-ethyl)-methyl-carbamoyl]-pyridin-3-yl}-amide]",12.7 nM
16,"O=C(Nc1cccnc1C(=O)N1CCC1)c1nc(C2CC2)cnc1Nc1cncnc1 [Example 194, 6-Cyclopropyl-3-(pyrimidin-5-ylamino)-pyrazine-2-carboxylic acid [2-(azetidine-1-carbonyl)-pyridin-3-yl]-amide]",5.5 nM
17,"CNC(=O)c1cc(F)c(F)cc1NC(=O)c1nc(C2CC2)cnc1Nc1cncnc1 [Example 288, 6-Cyclopropyl-3-(pyrimidin-5-ylamino)-pyrazine-2-carboxylic acid (4,5-difluoro-2-methylcarbamoyl-phenyl)-amide]",0.8 nM

# More lines, now with the values ahead:
row,IC50,SMILES
1,34.2 nM,"Cn1cc(NC(=O)c2nc(C3CC3)ccc2Nc2cncnc2)c(C(=O)N2CCC2)n1 [Example 30, 6-Cyclopropyl-3-(pyrimidin-5-ylamino)-pyridine-2-carboxylic acid [3-(azetidine-1-carbonyl)-1-methyl-1H-pyrazol-4-yl]-amide]"
2,3.4 nM,"CNC(=O)c1nn(C)cc1NC(=O)c1nc(C(C)(C)C)ncc1Nc1cncnc1 [Example 77, 2-tert-Butyl-5-(pyrimidin-5-ylamino)-pyrimidine-4-carboxylic acid (1-methyl-3-methylcarbamoyl-1H-pyrazol-4-yl)-amide]"
3,2.2 nM,"CON(C)C(=O)c1c(NC(=O)c2nc(C3CC3)cnc2Nc2cncnc2)cnn1C [Example 334, 6-Cyclopropyl-3-(pyrimidin-5-ylamino)-pyrazine-2-carboxylic acid [5-(methoxy-methyl-carbamoyl)-1-methyl-1H-pyrazol-4-yl]-amide]"
4,3.1 nM,"CNC(=O)c1c(NC(=O)c2nc(C3CC3)cnc2Nc2cncnc2)cccc1OC [Example 192, 6-Cyclopropyl-3-(pyrimidin-5-ylamino)-pyrazine-2-carboxylic acid (3-methoxy-2-methylcarbamoyl-phenyl)-amide]"
5,4.3 nM,"CC(C)(O)CNC(=O)c1ccncc1NC(=O)c1nc(C(C)(C)C)ncc1Nc1cncnc1 [Example 93, 2-tert-Butyl-5-(pyrimidin-5-ylamino)-pyrimidine-4-carboxylic acid [4-(2-hydroxy-2-methyl-propylcarbamoyl)-pyridin-3-yl]-amide]"
6,16.7 nM,"CN(C)C(=O)c1c(F)cc(F)cc1NC(=O)c1nc(C2CC2)cnc1Nc1cncnc1 [Example 300, 6-Cyclopropyl-3-(pyrimidin-5-ylamino)-pyrazine-2-carboxylic acid (2-dimethylcarbamoyl-3,5-difluoro-phenyl)-amide]"
7,4.2 nM,"O=C(Nc1cnccc1C(=O)N1CCC1)c1nc(C2CC2)ccc1Nc1cncnc1 [Example 67, 6-Cyclopropyl-3-(pyrimidin-5-ylamino)-pyridine-2-carboxylic acid [4-(azetidine-1-carbonyl)-pyridin-3-yl]-amide]"
8,3.5 nM,"CNC(=O)c1nc(C)ccc1NC(=O)c1nc(C2CC2)cnc1Nc1cncnc1 [Example 182, 6-Cyclopropyl-3-(pyrimidin-5-ylamino)-pyrazine-2-carboxylic acid (6-methyl-2-methylcarbamoyl-pyridin-3-yl)-amide]"
9,12.6 nM,"CN(C(=O)c1nn(C)cc1NC(=O)c1nc(C2CC2)ccc1Nc1cncnc1)C1CCCCC1 [Example 17, 6-Cyclopropyl-3-(pyrimidin-5-ylamino)-pyridine-2-carboxylic acid [3-(cyclohexyl-methyl-carbamoyl)-1-methyl-1H-pyrazol-4-yl]-amide]"
10,15.9 nM,"CNC(=O)c1c(NC(=O)c2nc(C3CC3)cnc2Nc2cncnc2)cnn1C1CCOC1 (stereo not drawn) [Example 250, 6-Cyclopropyl-3-(pyrimidin-5-ylamino)-pyrazine-2-carboxylic acid [5-methylcarbamoyl-1-(tetrahydro-furan-3-yl)-1H-pyrazol-4-yl]-amide]"
11,51.7 nM,"CNC(=O)c1c(NC(=O)c2nc(C(C)C)ncc2Nc2cccc(F)c2)cnn1C [Example 188, 5-(3-Fluoro-phenylamino)-2-isopropyl-pyrimidine-4-carboxylic acid (1-methyl-5-methylcarbamoyl-1H-pyrazol-4-yl)-amide]"
12,12.2 nM,"COc1cccc(NC(=O)c2nc(C3CC3)cnc2Nc2cncnc2)c1C(=O)N(C)C [Example 206, 6-Cyclopropyl-3-(pyrimidin-5-ylamino)-pyrazine-2-carboxylic acid (2-dimethylcarbamoyl-3-methoxy-phenyl)-amide]"
13,20.6 nM,"CN(C)C(=O)c1nc(C2CC2)ccc1NC(=O)c1nc(C2CC2)cnc1Nc1cncnc1 [Example 265, 6-Cyclopropyl-3-(pyrimidin-5-ylamino)-pyrazine-2-carboxylic acid (6-cyclopropyl-2-dimethylcarbamoyl-pyridin-3-yl)-amide]"
14,12.6 nM,"COCCn1ncc(NC(=O)c2nc(C3CC3)ccc2Nc2cncnc2)c1C(=O)N(C)C [Example 6, 6-Cyclopropyl-3-(pyrimidin-5-ylamino)-pyridine-2-carboxylic acid [5-dimethylcarbamoyl-1-(2-methoxy-ethyl)-1H-pyrazol-4-yl]-amide]"
15,8.5 nM,"Cn1ncc(NC(=O)c2nc(C3CC3)cnc2Nc2cncnc2)c1C(N)=O [Example 150, 6-Cyclopropyl-3-(pyrimidin-5-ylamino)-pyrazine-2-carboxylic acid (5-carbamoyl-1-methyl-1H-pyrazol-4-yl)-amide]"
16,24.9 nM,"CCn1ncc(NC(=O)c2nc(C3CC3)cnc2Nc2cncnc2)c1C(=O)NCC1CCCO1 (stereo not drawn) [Example 233, 6-Cyclopropyl-3-(pyrimidin-5-ylamino)-pyrazine-2-carboxylic acid {1-ethyl-5-[(tetrahydro-furan-2-ylmethyl)-carbamoyl]-1H-pyrazol-4-yl}-amide]"
